In PMC5755735, “Discovery of indolylpiperazinylpyrimidines with dual-target profiles at adenosine A2A and dopamine D2 receptors for Parkinson's disease treatment” (PLoS ONE, 2018):
pKd, pKi: −log10 of the molar value. Counter-ions that a name gives are not always drawn.

What was measured:
D2 receptor = details: competition binding experiments with [3H]spiperone; cited from earlier work
[1] = target: human A2A receptors expressed in CHO cells (Homo sapiens, UniProt P29274); test: competition binding at human A2A adenosine receptors ([3H]NECA displacement); details: for pKi: displacement of [3H]NECA, CHO cells, 95% confidence limits, n = 3–6, read-out: Ki hA2A; for hA1/hA2A / hA3/hA2A: selectivity ratio of Ki values
Procedure: (§1) A two-step procedure was adopted to prepare membrane for radioligand binding from cells stably transfected with human adenosine receptor subtypes (hA1, hA2A and hA3 expressed on CHO cells). Firstly, cell fragments and nuclei were removed by using low-speed centrifugation (1,000 g for 10 min). After that, crude membrane fraction from supernatant was then sedimented at 100,000 g for 30 min. The membrane pellet was subsequently re-suspended in the specific binding buffer, frozen in liquid nitrogen and stored at -80°C. For measurement of adenylyl cyclase activity in the hA2B receptors, one-step centrifugation procedure was used; the homogenate was sedimented for 30 min at 54,000 g. The so-obtained crude membrane pellet was re-suspended in 50 mM Tris/HCl, pH 7.4 and used for the adenylyl cyclase assay immediately.
(§2) Non-specific binding was determined using theophylline 1 mM. […] Non-specific binding was determined using N^6-R-phenylisopropyl adenosine (R-PIA) 100 μM. ^41 The binding of [^3H]HEMADO to CHO cells transfected with hA3 adenosine receptors was carried out as described earlier. […] Non-specific binding was determined using R-PIA 100 μM.
(§3) The assay mixture was then filtered through the built-in filter at the bottom of the 96-well microplate filtration system (Millipore Multiscreen MAFC) and washed three times with 200 μL of cold buffer. After addition of 20 μL of scintillator to the dried filter plates, the filter bound radioactivity was counted on a Wallac Micro-Beta counter. All Ki values were calculated by non-linear curve fitting with the program SCTFIT [45].

[2] = target: T1, human A2B receptors expressed in CHO cells (Homo sapiens, UniProt P29275); test: inhibition of NECA-stimulated adenylyl cyclase activity at hA2B
T1 sequence (P29275 1-332): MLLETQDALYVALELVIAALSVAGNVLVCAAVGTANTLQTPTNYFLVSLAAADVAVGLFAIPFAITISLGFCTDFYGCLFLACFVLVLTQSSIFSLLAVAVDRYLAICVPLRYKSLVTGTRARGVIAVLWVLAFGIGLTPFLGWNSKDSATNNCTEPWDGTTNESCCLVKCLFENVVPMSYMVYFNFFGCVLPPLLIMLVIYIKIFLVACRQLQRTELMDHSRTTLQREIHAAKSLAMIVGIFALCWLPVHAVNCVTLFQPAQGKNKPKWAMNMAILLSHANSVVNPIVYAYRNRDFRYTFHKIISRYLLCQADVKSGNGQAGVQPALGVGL
Procedure: The membranes were incubated with about 150,000 cpm of [α-^32P]adenosine triphosphate ([α-^32P]ATP) and test compounds in different concentrations for 20 min. A non-linear regression analysis was applied to calculate the IC50 of the adenylyl cyclase activity assay. From the IC50 values, Ki values were then calculated using the Cheng and Prusoff equation [46].

[3] = target: T2, human A1 receptors expressed in CHO cells (Homo sapiens, UniProt P30542); test: competition binding at human A1 adenosine receptors ([3H]CCPA displacement); details: displacement of [3H]CCPA, 95% confidence limits, n = 3–6, read-out: Ki hA1
T2 sequence (P30542 1-326): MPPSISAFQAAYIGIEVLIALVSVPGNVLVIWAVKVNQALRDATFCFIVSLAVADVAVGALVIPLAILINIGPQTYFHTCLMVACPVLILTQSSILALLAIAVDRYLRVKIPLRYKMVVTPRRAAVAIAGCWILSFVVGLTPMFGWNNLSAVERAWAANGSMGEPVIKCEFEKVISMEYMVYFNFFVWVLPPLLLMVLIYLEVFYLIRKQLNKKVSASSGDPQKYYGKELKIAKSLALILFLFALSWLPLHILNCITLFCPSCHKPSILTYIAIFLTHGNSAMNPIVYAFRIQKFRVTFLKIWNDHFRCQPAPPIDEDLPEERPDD
Procedure: as §1, §2, §3

[4] = target: T3, human A3 receptors expressed in CHO cells (Homo sapiens, UniProt P0DMS8); test: competition binding at human A3 adenosine receptors ([3H]HEMADO displacement); details: displacement of [3H]HEMADO, 95% confidence limits, n = 3–6, read-out: Ki hA3
T3 sequence (P0DMS8 1-318): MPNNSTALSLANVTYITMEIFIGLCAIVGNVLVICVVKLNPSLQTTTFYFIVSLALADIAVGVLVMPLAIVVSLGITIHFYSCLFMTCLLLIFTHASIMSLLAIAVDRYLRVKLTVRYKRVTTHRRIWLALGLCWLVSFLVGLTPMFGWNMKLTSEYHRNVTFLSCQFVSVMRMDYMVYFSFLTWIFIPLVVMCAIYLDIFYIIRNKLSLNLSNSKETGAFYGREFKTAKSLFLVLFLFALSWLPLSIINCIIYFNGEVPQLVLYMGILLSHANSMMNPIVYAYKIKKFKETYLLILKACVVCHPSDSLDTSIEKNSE
Procedure: as §1, §2, §3

hA2A = details: read-out: Ki hA2A; cited from earlier work
[5] = target: T3, human A3 receptors expressed in CHO cells; design: method as in PMID 17126322; details: read-out: KD of radioligand at hA3; cited from earlier work

human A2A receptors expressed in CHO cells, sequence (P29274 whole entry, the tested form may be a part): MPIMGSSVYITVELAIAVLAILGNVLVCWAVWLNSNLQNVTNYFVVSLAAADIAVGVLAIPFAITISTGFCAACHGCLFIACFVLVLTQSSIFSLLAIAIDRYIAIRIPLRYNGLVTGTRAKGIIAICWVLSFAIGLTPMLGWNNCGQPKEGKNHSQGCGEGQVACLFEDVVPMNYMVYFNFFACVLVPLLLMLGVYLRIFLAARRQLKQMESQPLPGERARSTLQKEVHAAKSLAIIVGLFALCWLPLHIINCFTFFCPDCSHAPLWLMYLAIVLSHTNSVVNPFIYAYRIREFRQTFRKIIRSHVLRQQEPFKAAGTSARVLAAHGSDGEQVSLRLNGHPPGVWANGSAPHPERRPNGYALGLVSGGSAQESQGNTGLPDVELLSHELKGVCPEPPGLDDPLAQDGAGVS

Row | SMILES | pKi (D2 receptor) | pKi [1] | pKi [2] | pKi [3] | pKi [4] | hA1/hA2A [1] | hA3/hA2A [1] | fold decrease in hA2A affinity ([1]; versus compound 6) | fold improvement in hA2A affinity ([1]; versus compound 5) | pKi (hA2A) | pKd [5]
1 | CCCN(CCc1ccccc1)C1CCc2c(O)cccc2C1 (racemic) [(±)-PPHT.HCl, (±)-2-(N-phenethyl-N-propyl)amino-5-hydroxytetralin hydrochloride] | 7.88 |  |  |  |  |  |  |  |  |  | 
2 | Cc1cc(C)nc(N2CCN(C(=O)CCc3c[nH]c4ccccc34)CC2)n1 [Compound 7, 1‐[4‐(4,6‐Dimethylpyrimidin‐2‐yl)piperazin‐1‐yl]‐3‐(1H‐indol‐3-yl)propan‐1‐one] |  | < 4.00 | < 4.70 |  |  |  |  |  |  |  | 
3 | Cc1cc(C)nc(N2CCN(C(=O)CCCc3c[nH]c4ccccc34)CC2)n1 [Compound 8, 1‐[4‐(4,6‐Dimethylpyrimidin‐2‐yl)piperazin‐1‐yl]‐4‐(1H‐indol‐3‐yl)butan‐1‐one] |  | < 4.00 | < 4.70 |  |  |  |  |  |  |  | 
4 | Cc1cc(C)nc(N2CCN(Cc3c[nH]c4ccccc34)CC2)n1 [Compound 9, 3‐{[4‐(4,6‐Dimethylpyrimidin‐2‐yl)piperazin‐1‐yl]methyl}‐1H‐indole] |  | < 4.52 | < 4.70 | < 4.00 | < 4.52 |  |  |  |  |  | 
5 | Cc1cc(C)nc(N2CCN(CCc3c(C)[nH]c4ccccc34)CC2)n1 [Compound 10, 3‐{2‐[4‐(4,6‐Dimethylpyrimidin‐2‐yl)piperazin‐1‐yl]ethyl}‐2‐methyl‐1H‐indole] |  | 4.46 | < 4.70 | < 4.00 | 4.40 | >3 | 1.16 |  |  |  | 
6 | Cc1cc(C)nc(N2CCN(CCCc3c[nH]c4ccccc34)CC2)n1 [Compound 11, 3‐{3‐[4‐(4,6‐Dimethylpyrimidin‐2‐yl)piperazin‐1‐yl]propyl}‐1H‐indole] |  | < 4.00 | < 4.70 |  |  |  |  |  |  |  | 
7 | Cc1cc(C)nc(N2CCN(CCCCc3c[nH]c4ccccc34)CC2)n1 [Compound 12, 3‐{4‐[4‐(4,6‐Dimethylpyrimidin‐2‐yl)piperazin‐1‐yl]butyl}‐1H‐indole] |  | < 4.00 | < 4.70 |  |  |  |  |  |  |  | 
8 | COc1cccc2[nH]cc(C(=O)N3CCN(c4nc(C)cc(C)n4)CC3)c12 [Compound 13, 3‐[4‐(4,6‐Dimethylpyrimidin‐2‐yl)piperazine‐1‐carbonyl]‐4‐methoxy‐1H‐indole] |  | 4.73 | < 4.70 | < 4.00 | < 4.52 | >5 | >2 |  |  |  | 
9 | COc1ccc2[nH]cc(C(=O)N3CCN(c4nc(C)cc(C)n4)CC3)c2c1 [Compound 14, 3‐[4‐(4,6‐Dimethylpyrimidin‐2‐yl)piperazine‐1‐carbonyl]‐5‐methoxy‐1H‐indole] |  | 4.90 | < 4.70 | < 4.00 | < 4.52 | >8 | >2 |  |  |  | 
10 | Cc1cc(C)nc(N2CCN(C(=O)Cc3c(C)[nH]c4ccc(F)cc34)CC2)n1 [Compound 15, 1‐[4‐(4,6‐Dimethylpyrimidin‐2‐yl)piperazin‐1‐yl]‐2‐(5‐fluoro‐2‐methyl‐1H‐indol‐3‐yl)ethan‐1‐one] |  | 4.74 | < 4.70 | < 4.00 | < 4.52 | >6 | >2 |  |  |  | 
11 | Cc1cc(C)nc(N2CCN(C(=O)c3c[nH]c4ccc(Cl)cc34)CC2)n1 [Compound 16, 5‐Chloro‐3‐[4‐(4,6‐dimethylpyrimidin‐2‐yl)piperazine‐1‐carbonyl]‐1H‐indole] |  | 4.81 | < 4.70 | < 4.00 | 4.71 | >7 | 1.26 |  |  |  | 
12 | Cc1cc(C)nc(N2CCN(C(=O)Cc3c(C)[nH]c4c(F)cc(Br)cc34)CC2)n1 [Compound 17, 2‐(5‐Bromo‐7‐fluoro‐2‐methyl‐1H‐indol‐3‐yl)‐1‐[4‐(4,6-dimethylpyrimidin‐2‐yl)piperazin‐1‐yl]ethan‐1‐one] |  | < 4.00 | < 4.70 | < 4.00 | < 4.00 |  |  |  |  |  | 
13 | Cc1cc(C)nc(N2CCN(C(=O)Cc3c[nH]c4ccccc34)CC2)n1 [Compound 18, 1‐[4‐(4,6‐Dimethylpyrimidin‐2‐yl)piperazin‐1‐yl]‐2‐(1H‐indol‐3‐yl)ethan‐1‐one] |  | 4.56 | < 4.70 | < 4.00 | < 4.52 | >4 | >1 | 3.2 fold |  |  | 
14 | Cc1cc(C)nc(N2CCN(C(=O)Cc3c[nH]c4cc(F)ccc34)CC2)n1 [Compound 19, 1‐[4‐(4,6‐Dimethylpyrimidin‐2‐yl)piperazin‐1‐yl]‐2‐(6‐fluoro‐1H‐indol‐3‐yl)ethan‐1‐one] |  | 4.57 | < 4.70 | < 4.00 | < 4.52 | >4 | >1 |  |  |  | 
15 | COc1cccc2c(C(=O)N3CCN(c4nc(C)cc(C)n4)CC3)c[nH]c12 [Compound 20, 3‐[4‐(4,6‐Dimethylpyrimidin‐2‐yl)piperazine‐1‐carbonyl]‐7‐methoxy‐1H‐indole] |  | 5.44 | < 4.70 | < 4.00 | < 4.52 | >28 | >8 |  | 3 fold |  | 
16 | Cc1cc(C)nc(N2CCN(C(=O)c3cc4ccccc4[nH]3)CC2)n1 [Compound 21, 2‐[4‐(4,6‐Dimethylpyrimidin‐2‐yl)piperazine‐1‐carbonyl]‐1H‐indole] |  | < 4.00 | < 4.70 | < 4.00 | < 4.00 |  |  |  |  |  | 
17 | Cc1cc(C)nc(N2CCN(C(=O)c3cc4cc(F)ccc4[nH]3)CC2)n1 [Compound 22, 2‐[4‐(4,6‐Dimethylpyrimidin‐2‐yl)piperazine‐1‐carbonyl]‐5‐fluoro‐1H‐indole] |  | < 4.00 | < 4.70 | < 4.00 | < 4.00 |  |  |  |  |  | 
18 | Cc1ccc2[nH]c(C(=O)N3CCN(c4nc(C)cc(C)n4)CC3)cc2c1 [Compound 23, 2‐[4‐(4,6‐Dimethylpyrimidin‐2‐yl)piperazine‐1‐carbonyl]‐5‐methyl‐1H‐indole] |  | < 4.00 | < 4.70 | < 4.00 | < 4.00 |  |  |  |  |  | 
19 | COc1ccc2[nH]c(C(=O)N3CCN(c4nc(C)cc(C)n4)CC3)cc2c1 [Compound 24, 2‐[4‐(4,6‐Dimethylpyrimidin‐2‐yl)piperazine‐1‐carbonyl]‐5‐methoxy‐1H‐indole] |  | < 4.52 | < 4.70 | < 4.52 | < 4.52 |  |  |  |  |  | 
20 | Cc1cc(C)nc(N2CCN(C(=O)c3cc4cccc([N+](=O)[O-])c4[nH]3)CC2)n1 [Compound 25, {2‐[4‐(4,6‐Dimethylpyrimidin‐2‐yl)piperazine‐1‐carbonyl]‐1H‐indol‐7‐yl}azinic acid] |  | 4.53 | < 4.70 | 5.32 | < 4.52 | 0.16 | >1 |  |  |  | 
21 | CCn1c(=O)c2c(nc(/C=C/c3ccc(OC)c(OC)c3)n2C)n(CC)c1=O [KW-6002] |  |  |  |  |  |  |  |  |  | 7.92 | 
22 | CCCCC#Cc1nc(NC)c2ncn([C@@H]3O[C@H](CO)[C@@H](O)[C@H]3O)c2n1 [[^3H]HEMADO, [^3H]-2-hexyn-1-yl-N^6-methyladenosine] |  |  |  |  |  |  |  |  |  |  | 8.96
